Measured values published in patent publication US7776873B2, “Method for treating damage to gastric mucosa” (Yuhan Corporation, priority 2005, dated 2010).

Tests used:
[1] = system: ERK (extracellular signal-regulated kinase); experiment: H. pylori-induced ERK activation (Western blot for p-ERK); assay type: cell-based, human; conditions: AGS cells, 5 and 25 uM for 16 hours, then H. pylori 30 minutes, FIG. 4
Experimental: H. pylori-induced cytotoxicity activates MAPK (Mitogen-Activated Protein Kinase), thereby resulting in apoptosis. Therefore, H. pylori infection leads to an increase in phosphorylation of ERK among three major subfamilies of MAPKs.
The human gastric epithelial (AGS, KCLB 21739) cells were seeded in culture dishes at 2×10^6 cells/100 mm^2 and cultured in RPMI 1640 (Gibco BRL, Grand Island, N.Y., U.S.A.), supplemented with 100 units/mL penicillin, 100 ug/mL streptomycin, and 10% FBS (Fetal Bovine Serum). Revaprazan, dissolved in sterilized water, were added to AGS cells to reach final concentrations of 5 and 25 uM and the cells were incubated at 37° C. for 16 hours. RPMI 1640 media was removed and then the cells washed three times with PBS (137 mM NaCl, 2.7 mM KCl, 10 mM Na2HPO4, and 2 mM KH2PO4). For inoculation, H. pylori (ATCC 43504) cultures were resuspended in PBS and cocultured with AGS cells at a final concentration of 5×10^8 CFU/ml. After 30 minutes of incubation at 37° C., the cells were resuspended in lysis buffer (20 mM Tris-Cl (pH 7.5), 150 mM NaCl, 1% Triton X-100, 1 mM EDTA, and protease inhibitor cocktail (Roche, Mannheim, Germany)). The suspension was sonicated for approximately 10 seconds, four times using the BIORUPTOR (Cosmo Bio, Koto-ku, Tokyo), and centrifuged at 4° C., 12000 rpm for 30 minutes. […]

[2] = system: interleukin-8 (IL-8); experiment: Expression level of IL-8 in sulindac-treated cells (RT-PCR); assay type: cell-based, rat; conditions: RGM-1 cells, revaprazan 25 uM (rebamipide 50 uM) 16 hours, then sulindac 100 uM 8 hours, FIG. 6
Experimental: (§1) In order to evaluate cytoprotective effect of revaprazan, 100 μM of sulindac belonging to NSAIDs was added to the rat cells, and the expression levels of pro-angiogenic growth factors, VEGF (Vascular Endothelial Growth Factor), interleukin-8 (IL-8), and COX-2 (cyclooxygenase-2) were measured. Rebamipide (50 μM), known to have cytoprotective properties, was used as a control drug and revaprazan (25 μM) was used as a test drug. The rat gastric mucosal (RGM-1, RIKEN cell bank, Japan) cells were seeded in culture dishes at 2×10^6 cells/100 mm^2 and cultured in RPMI 1640 (Gibco BRL, Grand Island, N.Y., U.S.A.), supplemented with 100 units/mL penicillin, 100 ug/mL streptomycin, and 10% FBS (Fetal Bovine Serum). […] The culture media were removed and the cells were washed three times with PBS (137 mM NaCl, 2.7 mM KCl, 10 mM Na2HPO4, and 2 mM KH2PO4). A solution of sulindac in DMSO was added to the cells to reach a final concentration of 100 uM and the cells were cultured at 37° C. for 8 hours. The cultured cells were collected by centrifugation at 23° C. at 3000 rpm for 3 minutes, and the total RNA was isolated from the cells using the TRIzol reagent (Life technologies, Milan, Italy). Sterilized RNase-free water was added to 2 μg of the total RNA and 1 μl of 10 pmol/λ oligo dT to obtain reaction solutions with a volume of 34 μl. […]

[3] = system: COX-2 (cyclooxygenase-2); experiment: Expression level of COX-2 in sulindac-treated cells (RT-PCR); assay type: cell-based, rat; conditions: RGM-1 cells, revaprazan 25 uM (rebamipide 50 uM) 16 hours, then sulindac 100 uM 8 hours, FIG. 6
Experimental: as §1

[4] = system: rat gastric mucosal (RGM-1) cells; experiment: Incidence of ethanol-induced cell death (MTT assay-2); assay type: cell-based; conditions: FIG. 2
Experimental: The rat gastric mucosal (RGM-1, RIKEN cell bank, Japan) cells were seeded onto 96-well plate at 5×10^4 cells/ml and cultured in DMEM-F12 (Gibco BRL, Grand Island, N.Y., U.S.A.), supplemented with 100 units/mL penicillin, 100 ug/mL streptomycin, and 10% FBS (Fetal Bovine Serum). […] To remove DMEM-F12 media, the plate was centrifuged at 24° C., 3000 rpm for 5 minutes and washed three times with PBS (137 mM NaCl, 2.7 mM KCl, 10 mM Na2HPO4, and 2 mM KH2PO4). Then, ethanol-containing media (200 mM ethanol-containing DMEM-F12, supplemented with 100 units/mL penicillin, 100 ug/mL streptomycin, and 10% FBS) was added to the cells, and the cells were cultured at 37° C. for 16 hours. After the incubation, the culture was centrifuged at 24° C., 3000 rpm for 5 minutes to remove the culture medium and then total viable cell numbers were assessed by MTT (3-[4,5-dimethylthiazol-2-yl]-2,5-diphenyl tetrazolim bromide) assay method. 1 mg/ml of an MTT solution prepared by dissolving MTT (Amresco, Ohio, U.S.A.) in PBS (137 mM NaCl, 2.7 mM KCl, 10 mM Na2HPO4, and 2 mM KH2PO4) was added to each well (50 μl/well), followed by incubation at 37° C. for 4 hours. The supernatant was then removed by centrifugation at 24° C., 3000 rpm for 5 minutes and the formazan grains formed by the viable cells were dissolved in 99.5% dimethylsulfoxide (DMSO) (Kanto, Tokyo, Japan) (50 μl/well), and the optical intensity was measured at 540 nm using an ELISA reader (TECAN, Maennedorf, Switzerland).

[5] = system: indomethacin-induced gastric mucosal lesions; experiment: Preventive effect on NSAID-induced gastropathy; assay type: in vivo, Sprague Dawley male rats; conditions: rats, oro-gastric pretreatment (revaprazan 5, 10 mg/kg; rebamipide 30 mg/kg; omeprazole 5 mg/kg) prior to indomethacin 40 mg/kg for 12 hrs, FIG. 8
Experimental: Six-week old specific-pathogen-free (SPF) Sprague Dawley male rats (Charles River, Tokyo, Japan) were used for experiments. The rats were fed a sterilized commercial pellet diet (Biogenomics Co., Seoul, Korea), given sterile water ad libitum, and housed in air-conditioned biohazard room with a 12-h light:12-h dark cycle. The rats were food-deprived 24 hours, and then administered with 5, 10 mg/kg revaprazan, 30 mg/kg rebamipide and 5 mg/kg omeprazole suspended in 0.5% CMC (carboxymethylcellulose) via oro-gastric tube prior to exposure to indomethacin (40 mg/kg for 12 hrs). Phosphate-buffered saline was perfused into the gastric lumen of the rats to swell the stomachs. Then, the stomachs were opened by an incision along the greater curvature, and the total area of the gastric mucosal lesions was calculated to obtain the average size of the lesions.

Cc1nc(Nc2ccc(F)cc2)nc(N2CCc3ccccc3C2C)c1C (stereo not drawn) [revaprazan, 5,6-dimethyl-2-(4-fluorophenylamino)-4-(1-methyl-1,2,3,4-tetrahydroisoquinolin-2-yl)pyrimidine]
effect on ERK activation (p-ERK) [1]: significant, concentration-dependent inhibitory effect
expression level of IL-8 versus rebamipide-sulindac treatment group [2]: much higher
expression level of COX-2 versus rebamipide-sulindac treatment group [3]: much higher
cytoprotective effect against ethanol-induced cytotoxicity compared with rebamipide ([4]; 50 uM each): equal to or greater than rebamipide
ethanol-induced gastric mucosal cytotoxicity ([4]; 50 uM pretreatment for 16 hours, then 200 mM ethanol for 16 hours): significantly reduced
hemorrhagic gastric mucosal lesions after pretreatment [5]: little hemorrhagic lesions are observed
